These results are taken from PubChem BioAssay AID1648 (Sanford-Burnham Center for Chemical Genomics, 2009).

By Kd is commonly meant the constant that tells how readily two partners part at equilibrium.

The test deals with Serine/threonine-protein kinase mTOR (Homo sapiens) (UniProt P42345). Briefly: mTOR FRB domain ligand binding – biophysical, NMR (AID 1648). Conditions: NMR binding to FRB domain, chemical shift.

Activity calls are given as the source filed them. How the calls were made is not given here.

Chain of Serine/threonine-protein kinase mTOR (Homo sapiens) (P42345 2015-2114): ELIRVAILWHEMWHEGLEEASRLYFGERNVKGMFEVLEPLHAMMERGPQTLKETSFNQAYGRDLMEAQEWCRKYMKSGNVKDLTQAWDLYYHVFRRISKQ

For the compound `O=C(O)C1CSC(c2cc3ccccc3nc2Cl)N1` (configuration not stated), the Kd is > 4 mM (inactive).

With `Cc1cccc(NC(=O)c2ccc(=O)[nH]n2)c1`, the Kd is > 4 mM (inactive).

As for `Cc1c(O)c(O)cc2c1CC=C1[C@@]2(C)CC[C@@]2(C)C3C[C@](C)(C(=O)O)CC[C@]3(C)CC[C@]12C` (some centres not stated), the Kd is > 4 mM (inactive).

Take `OCC1Cc2ccccc2N1` (configuration not stated): the Kd was > 4 mM (inactive).

With `Cc1occc1C(=O)Nc1sccc1C(N)=O`, the Kd is > 4 mM (inactive).

Consider `Cn1nc(C(=O)NCc2cccnc2)c2ccccc2c1=O`, for which the Kd is > 4 mM (inactive).

`CN(C)CCCN1CNC(=S)NC1`: the Kd is > 4 mM (inactive).

For the compound `O=C(O)CNC(=O)c1ccccc1Cl`, the Kd is > 4 mM (inactive).

For the compound `CC(=O)NCS(=O)(=O)c1ccc(C)cc1`, the Kd was > 4 mM (inactive).

With `Nc1ncnc2nc(SCCN3CCCCC3)[nH]c12`, the Kd is > 4 mM (inactive).

Take `CC(C)(C)c1cc(N)n[nH]1`: the Kd is > 4 mM (inactive).

`CCCSc1nnc2[nH]c(=O)cc(N)n12`: the Kd is > 4 mM (inactive).

As for `CC(=O)Nc1cccc(-c2nnc(-c3ccccc3)o2)c1`, the Kd was > 4 mM (inactive).

Take `c1cncc(C(N2CCOCC2)N2CCOCC2)c1`: the Kd is > 4 mM (inactive).

As to `O=C(O)c1ccccc1C(=O)NCC1CCCO1` (configuration not stated), the Kd was > 4 mM (inactive).

As for `Cc1nc2c(n1O)CCc1c-2no[n+]1[O-]`, the Kd is > 4 mM (inactive).

As to `CC(=O)NS(=O)(=O)c1ccc(C)cc1`, the Kd is > 4 mM (inactive).

As for `C=C(C)C1Cc2c(ccc(C(=O)O)c2O)O1` (configuration not stated), the Kd was > 4 mM (inactive).

Consider `COc1cccc(-c2nc(-c3ccccn3)no2)c1OC`, for which the Kd was > 4 mM (inactive).

On to `COc1cc2c(c(OC)c1OC)-c1ccc(O)c(=O)cc1[C@@H](NC(C)=O)CC2`, for which the Kd is > 4 mM (inactive).

Take `Cc1ccc(SCc2nc(-c3cccnc3)no2)cc1`: the Kd was > 4 mM (inactive).

Take `O=C(NCN1CCOCC1)c1cnccn1`: the Kd is > 4 mM (inactive).

Consider `O=C(O)CCCCC1SCC2NC(=O)NC21` (configuration not stated), for which the Kd was > 4 mM (inactive).

For the compound `NC(=O)/C=C/C(=O)Nc1ccccc1`, the Kd was > 4 mM (inactive).

Regarding `O=C1C=C(O)c2ccccc2C1=O`, the Kd was > 4 mM (inactive).

Take `CCSc1nnc2[nH]c(=O)cc(C)n12`: the Kd is > 4 mM (inactive).

Turning to `Cc1cc(C)n2nc(N)nc2n1`, the Kd was > 4 mM (inactive).

Consider `O=C1CCNc2cc3ccccc3cc21`, for which the Kd is > 4 mM (inactive).

Regarding `CC12CC[C@H](CC1=O)C2(C)C`, the Kd was > 4 mM (inactive).

With `CCn1c(=O)cc(N2CCC3(CC2)OCCO3)[nH]c1=O`, the Kd is > 4 mM (inactive).

Take `COc1cc2nc(N3CCNCC3)nc(N)c2cc1OC`: the Kd is > 4 mM (inactive).

As to `CNC(=S)N1CCN=C1Nc1nc(C)cc(C)n1`, the Kd is > 4 mM (inactive).

In the case of `N=c1c2c3c(sc2ncn1N)CCCC3`, the Kd is > 4 mM (inactive).

Turning to `Nc1ccc(Cl)nn1`, the Kd is > 4 mM (inactive).

Take `CC(C)c1ccc2c(c1)CCC1[C@](C)(CN)CCC[C@]21C` (some centres not stated): the Kd was > 4 mM (inactive).

`O=C(Nc1ccccc1Cl)c1cnccn1`: the Kd was > 4 mM (inactive).

For the compound `CC(=O)N/N=C(\C)c1cccc(N)c1`, the Kd is > 4 mM (inactive).

`O=C(NCO)c1ccccc1Cl`: the Kd was > 4 mM (inactive).

As to `C[C@H](CCC(=O)O)[C@H]1CCC2C3C(CC[C@@]21C)[C@@]1(C)CC[C@@H](O)C[C@H]1C[C@H]3O` (some centres not stated), the Kd was > 4 mM (inactive).

In the case of `CCOC(=O)Nc1ccc2c(C)cc(=O)oc2c1`, the Kd is > 4 mM (inactive).

`CC1CCN(C(=O)c2ccc(NS(C)(=O)=O)cc2)CC1`: the Kd is > 4 mM (inactive).

With `CN1CCN(c2cc(=O)n(C)c(=O)[nH]2)CC1`, the Kd is > 4 mM (inactive).

Consider `CN1C2CCC1CC(OC(=O)C(CO)c1ccccc1)C2` (configuration not stated), for which the Kd was > 4 mM (inactive).

For the compound `NC(=O)c1cc(N)ccc1N1CCCCC1`, the Kd is > 4 mM (inactive).

As for `CC(C)(C)c1cc(NC(=O)c2cccnc2)no1`, the Kd is > 4 mM (inactive).

With `CNC(=O)CC1Sc2ccccc2NC1=O` (configuration not stated), the Kd is > 4 mM (inactive).

In the case of `NC(=O)c1sc2ccccc2c1Cl`, the Kd was > 4 mM (inactive).

Regarding `O=C(O)/C=C1\NC(=O)c2ccccc21`, the Kd is > 4 mM (inactive).

On to `O=C1NC(=O)C(C(C[N+](=O)[O-])c2ccc(O)cc2)C(=O)N1` (configuration not stated), for which the Kd is > 4 mM (inactive).

On to `CN(C)S(=O)(=O)c1ccc(NC=O)cc1`, for which the Kd was > 4 mM (inactive).

For the compound `CC(=O)Nc1ccc2c(c1)C(=O)N(C1CCCCC1)C2=O`, the Kd was > 4 mM (inactive).

As for `Cc1cc2cc3c(C)cc(=O)oc3c(C)c2o1`, the Kd was > 4 mM (inactive).

In the case of `N#Cc1nc(-c2cccs2)oc1N1CCOCC1`, the Kd was > 4 mM (inactive).

For the compound `Nc1nnc(Cc2ccc(Cl)cc2)s1`, the Kd is > 4 mM (inactive).

On to `Nc1c(Nc2ccccc2)c2ccccc2oc1=O`, for which the Kd was > 4 mM (inactive).

As to `COc1ccc(C(N)=O)cc1N`, the Kd was > 4 mM (inactive).

In the case of `O=C1C2CCCCC2C(=O)N1c1nccs1` (configuration not stated), the Kd was > 4 mM (inactive).

Consider `O=C(OCc1c(F)cccc1Cl)c1cnccn1`, for which the Kd was > 4 mM (inactive).

Turning to `NCc1ccc2sccc2c1`, the Kd is > 4 mM (inactive).

As for `Cc1oc(-c2ccccc2)cc1C(N)=O`, the Kd was > 4 mM (inactive).

Take `O=C(O)c1c[nH]c2ccccc12`: the Kd was > 4 mM (inactive).

Take `CCCCn1c(S(=O)(=O)O)nc2ccccc21`: the Kd is > 4 mM (inactive).

For `CC(=O)c1ccc(NC(=O)c2ocnc2C)cc1`, the Kd is > 4 mM (inactive).

For the compound `CC1=C2C(=CO[C@H](C)[C@H]2C)C(=O)C(C(=O)O)=C1O`, the Kd was > 4 mM (inactive).

With `Fc1ccc(CN2CCCNCC2)cc1`, the Kd is > 4 mM (inactive).

Consider `c1coc(CNc2ncnc3nc[nH]c23)c1`, for which the Kd is > 4 mM (inactive).

In the case of `OCCCc1nc2ccc(C(F)(F)F)cc2[nH]1`, the Kd was > 4 mM (inactive).

With `Nc1ccc(OC(F)(F)F)cc1`, the Kd was > 4 mM (inactive).

For `Cc1noc(C)c1C(=O)N1CCC2(CC1)OCCO2`, the Kd was > 4 mM (inactive).

Take `Nc1ncnc(NCc2cccnc2)c1[N+](=O)[O-]`: the Kd is > 4 mM (inactive).

Consider `NNc1ncnc2sccc12`, for which the Kd was > 4 mM (inactive).

Consider `Nc1cccc(S(=O)(=O)N2CCCCC2)c1`, for which the Kd is > 4 mM (inactive).

Regarding `CN(C)C1CCS(=O)(=O)C1` (configuration not stated), the Kd was > 4 mM (inactive).

In the case of `Cc1cc(=O)n2[nH]cnc2n1`, the Kd is > 4 mM (inactive).

Regarding `O=C1c2ccc(F)cc2C(=O)N1CO`, the Kd is > 4 mM (inactive).

On to `CC(C)=CCC[C@](C)(O)C1CC=C(C)CC1` (some centres not stated), for which the Kd was > 4 mM (inactive).

For the compound `O=C1Cn2c(nc3ccccc32)N1c1ccccc1F`, the Kd was > 4 mM (inactive).

For `CCC(=O)OC1[C@@H]2CC3=C4CC(=O)O[C@@H](c5ccoc5)[C@]4(C)CCC3C(C)(C2=O)[C@@H](CC(=O)OC)C1(C)C` (some centres not stated), the Kd was > 4 mM (inactive).

For `NC1=NC(=O)/C(=C\c2cccnc2)S1`, the Kd is > 4 mM (inactive).

With `Nc1nnc(C(F)(F)F)s1`, the Kd is > 4 mM (inactive).

As to `CC1(C)Cn2c(nnc2-c2ccccc2)S1`, the Kd is > 4 mM (inactive).

As to `CNC(=O)COc1cccc2c1CCNC2=O`, the Kd is > 4 mM (inactive).

As for `Oc1ccccc1-c1nnco1`, the Kd was > 4 mM (inactive).

With `COC(=O)C1=C(C)N(c2cccc(C(C)=O)c2)C(=O)C1`, the Kd was > 4 mM (inactive).

Take `CC(C)(C)CC(=O)N1CCC(C(N)=O)CC1`: the Kd is > 4 mM (inactive).

With `CN1CCn2c1nc(N1CCCCC1)nc2=O`, the Kd is > 4 mM (inactive).

Turning to `Cc1csc2nc(=O)c3ccccc3n12`, the Kd is > 4 mM (inactive).

Consider `C=C1C([C@]2(C)C(CC(=O)OC)[C@@](C)(COC(C)=O)OC(=O)C[C@@H]2OC(C)=O)[C@@H](OC=O)[C@H](OC(=O)C(O)C(C)CC)[C@@]2(C)[C@H](c3ccoc3)CC(=O)C12O` (some centres not stated), for which the Kd was > 4 mM (inactive).

`COc1cc(N)ncn1`: the Kd was > 4 mM (inactive).

For `COc1c(-c2ccccc2)oc2c(OC)cccc2c1=O`, the Kd was > 4 mM (inactive).

As to `O=c1[nH]cc(S(=O)(=O)N2CCc3ccccc32)c(=O)[nH]1`, the Kd is > 4 mM (inactive).

As to `NC1=NC(=O)C(Cc2cccc([N+](=O)[O-])c2)S1` (configuration not stated), the Kd was > 4 mM (inactive).

Turning to `COC(=O)c1ccc2nsnc2c1`, the Kd is > 4 mM (inactive).

As to `COC(=O)c1cccc(C(F)(F)F)c1`, the Kd was > 4 mM (inactive).

For `Cc1ccc(S(=O)(=O)CC(=O)N(C)C)cc1`, the Kd was > 4 mM (inactive).

For the compound `O=C(NCCO)c1cc2ccccc2cc1O`, the Kd is > 4 mM (inactive).

As for `CC(C)(C)Cc1nc(-c2ccccn2)no1`, the Kd was > 4 mM (inactive).

Consider `COC(=O)N(c1ccccc1)P1(=S)OCCO1`, for which the Kd was > 4 mM (inactive).

Consider `CCOC(=O)C1CCN(Cc2ccccc2)CC1=O` (configuration not stated), for which the Kd is > 4 mM (inactive).

For `CNC(=O)N1CCN(C(=O)NC)CC1`, the Kd was > 4 mM (inactive).

Consider `O=C1CC(=O)N(c2ccccc2)c2ccccc21`, for which the Kd was > 4 mM (inactive).

In the case of `CC1(C)NC(=O)N(CN2CCOCC2)C1=O`, the Kd was > 4 mM (inactive).

Regarding `COc1ccc(S(=O)(=O)Nc2ccccn2)c(C)c1C`, the Kd is > 4 mM (inactive).

`CN1C(=O)N(C)C2NC(=O)NC21` (configuration not stated): the Kd is > 4 mM (inactive).

`Nc1ccccc1N1CCOCC1`: the Kd was > 4 mM (inactive).

Regarding `CCCNC(=O)CSc1nnc(C)s1`, the Kd is > 4 mM (inactive).

Take `CSc1nnc2ccc(-c3cccnc3)nn12`: the Kd is > 4 mM (inactive).
